# Earlier results in PMC6311893, “Computational prediction of plasma protein binding of cyclic peptides from small molecule experimental data using sparse modeling techniques” (BMC Bioinformatics, 2018).
# Where two headings read alike, the source gives them in different places.
# Key:
# plasma protein [1] = details: cited from earlier work
# plasma protein [2] = details: cited from earlier work; remark: listed apart in the source
# [3] = fraction bound (0-1), public cyclic peptide drug dataset, ref DrugBank [39]
# [4] = fraction bound to plasma protein, small molecule dataset, sheet 1-SM, Set Dtr, ref Ingle et al.
# [5] = fraction bound to plasma protein, small molecule dataset, sheet 1-SM (Set Dte = test, Dtr = training), ref Ingle et al.
# [6] = fraction bound to plasma protein, small molecule dataset, sheet 1-SM, ref Ingle et al.
compound,measurement,setting,value
Quinupristin [reference compound],PPB (fb),plasma protein [1],0.55-0.78
same,PPB (fb),plasma protein [2]; plasma,0.66
Eptifibatide [reference compound],PPB (fb),plasma protein [1],0.25
same,PPB (fb),plasma protein [2]; plasma,0.25
Anidulafungin [reference compound],PPB (fb),plasma protein [1]; [3],0.99
same,PPB (fb),plasma protein [2]; plasma,0.84
Acetyl-Daptomycin,PPB (fb),plasma protein [1]; [3],0.12
Dactinomycin,PPB (fb),plasma protein [1]; [3],0.05
Vancomycin [reference compound],PPB (fb),plasma protein [1]; [3],0.55
same,PPB (fb),plasma protein [2]; plasma,0.37
Terlipressin,PPB (fb),plasma protein [1],0.3
Teixobactin,PPB (fb),plasma protein [1],0.84
Lanreotide,PPB (fb),plasma protein [1]; [3],0.79-0.83
Oxytocin [reference compound],PPB (fb),plasma protein [1],0.3
same,PPB (fb),plasma protein [2]; plasma,0
Telavancin,PPB (fb),plasma protein [1]; [3],0.897
Dalbavancin,PPB (fb),plasma protein [1],0.93
Pasireotide,PPB (fb),plasma protein [1]; [3],0.88
Micafungin [reference compound],PPB (fb),plasma protein [1]; [3],0.99
same,PPB (fb),plasma protein [2]; plasma,1
Colistin,PPB (fb),plasma protein [1]; [3],0.904-0.929
Vasopressin,PPB (fb),plasma protein [1]; [3],0.01
Desmopressin,PPB (fb),plasma protein [1]; [3],0.5
Romidepsin,PPB (fb),plasma protein [1]; [3],0.92-0.94
Polymyxin?B,PPB (fb),plasma protein [1]; [3],0.559
Caspofungin,PPB (fb),plasma protein [1]; [3],0.97
Daptomycin,PPB (fb),plasma protein [1]; [3],0.85
C[C@H]1C[C@H]2[C@@H]3CCC4=CC(=O)C=C[C@]4(C)[C@@]3(F)[C@@H](O)C[C@]2(C)[C@@]1(O)C(=O)CO [Betamethasone],PPB (fb),plasma protein [2]; [4],0.66
Cc1cc(C)nc(NS(=O)(=O)c2ccc(N)cc2)n1 [sulfadimidine],PPB (fb),plasma protein [2]; [5],0.85
C[C@]12CCC(=O)C=C1CC[C@H]1[C@@H]3CC[C@](O)(C(=O)CO)[C@@]3(C)C[C@H](O)[C@@]12F [fludrocortisone],PPB (fb),plasma protein [2]; [6],0.75
COc1nccnc1NS(=O)(=O)c1ccc(N)cc1 [sulfametopyrazine],PPB (fb),plasma protein [2]; [6],0.72
N[C@@H](Cc1ccc(N(CCCl)CCCl)cc1)C(=O)O [Melphalan],PPB (fb),plasma protein [2]; plasma,0.88
Cc1ccc(O)c([C@H](CCN(C(C)C)C(C)C)c2ccccc2)c1 [Tolterodine],PPB (fb),plasma protein [2]; [6],0.96
CC1(C)SC2C(NC(=O)C(Cl)c3ccc(Cl)c(Cl)c3)C(=O)N2C1C(=O)O (stereo not shown) [penicillin25],PPB (fb),plasma protein [2]; [5],0.97
C[C@]12CC[C@@H]3c4ccc(O)cc4CC[C@H]3[C@@H]1CC[C@@H]2O [Estradiol],PPB (fb),plasma protein [2]; [4],0.984
Felodipine,PPB (fb),plasma protein [2]; plasma,1
O=C(O)c1cn(-c2cccc([N+](=O)[O-])c2)c2cc(N3CCNCC3)c(F)cc2c1=O [7b(m-NO2)],PPB (fb),plasma protein [2]; [5],0.66
CC[C@@H](CO)NC(=O)[C@@H]1C=C2c3cccc4[nH]cc(c34)C[C@H]2N(C)C1 [methylergonovine],PPB (fb),plasma protein [2]; plasma,0.35
COCC1CN(c2ccc(OCc3cccc(C#N)c3)cc2)C(=O)O1 (stereo not shown) [cimoxatone],PPB (fb),plasma protein [2]; [5],0.94
N=C(N)N1CCc2ccccc2C1 [debrisoquine],PPB (fb),plasma protein [2]; [5],0.85
COCCNC(=O)CN(CCN(CCN(CC(=O)O)CC(=O)NCCOC)CC(=O)O)CC(=O)O [Gadoversetamide],PPB (fb),plasma protein [2]; [4],0
C[C@@H]1C[C@H]2[C@@H]3CCC4=CC(=O)C=C[C@]4(C)[C@@]3(F)[C@@H](O)C[C@]2(C)[C@@]1(O)C(=O)CO [Dexamethasone],PPB (fb),plasma protein [2]; [4],0.68
Nc1nc(NC2CC2)c2ncn([C@H]3C=C[C@@H](CO)C3)c2n1 [Abacavir],PPB (fb),plasma protein [2]; [4],0.5
COc1c(Cl)ccc(Cl)c1C(=O)O [Dicamba],PPB (fb),plasma protein [2]; [4],0.9
CC(C)=CCN1CCC2(C)c3cc(O)ccc3CC1C2C (stereo not shown) [Pentazocine],PPB (fb),plasma protein [2]; plasma,0.61
C=C(CC)C(=O)c1ccc(OCC(=O)O)c(Cl)c1Cl [ethacrynic acid],PPB (fb),plasma protein [2]; [6],0.9
flurazepam,PPB (fb),plasma protein [2]; plasma,0.97
O=c1c(O)c(-c2ccc(O)c(O)c2)oc2cc(O)cc(O)c12 [Quercetin],PPB (fb),plasma protein [2]; [4],0.99
CSc1ccc(C(=O)c2[nH]c(=O)[nH]c2C)cc1 [Fenoximone],PPB (fb),plasma protein [2]; [4],0.74
CC(C)OC(=O)C(C)(C)Oc1ccc(C(=O)c2ccc(Cl)cc2)cc1 [fenofibrate],PPB (fb),plasma protein [2]; [6],0.99
CCOc1nc2cccc(C(=O)O)c2n1Cc1ccc(-c2ccccc2-c2nnn[nH]2)cc1 [candesartan],PPB (fb),plasma protein [2]; [5],0.99
Rifabutin,PPB (fb),plasma protein [2]; plasma,0.76
